According to US10544154B2, “Opioid receptor antagonist prodrugs” (Nirsum Laboratories, Inc., priority 2017, dated 2020):

Experiments:
[1] = Polymorph screening of solid state drug substances; format: physicochemical; details: for Dry method and appearance: after stirring at 50 °C for 72 hours; for XRPD results (Dried): dried solid
[2] = Plasma stability, rat plasma (HPLC-MS); format: in vitro ADME; details: 10 μM, 37° C.
Experimental: Plasma stability determination of the test compounds in rat, dog, cynomolgus monkey and human plasma is performed using HPLC-MS. For rat, incubations are carried out in 96-well polypropylene plates in 5 aliquots of 70 μL each (one for each time point). […] Five time points are analyzed (0, 15, 120, 480 and 1440 min). For dog, monkey and human, test compounds (2 μM, final solvent concentration 1%) were also incubated at 37° C. and analyzed at five time points (0, 10, 30, 60 and 120 min). All incubations are performed in duplicates. The samples are analyzed by HPLC-MS. The percentage of parent compound remaining after incubation in plasma is determined.

Structure (SMILES)	Dry method and appearance ([1]; Acetone)	XRPD results (Dried) ([1]; Acetone)	Dry method and appearance ([1]; EtOAc)	XRPD results (Dried) ([1]; EtOAc)	Dry method and appearance ([1]; Heptane)	XRPD results (Dried) ([1]; Heptane)	Dry method and appearance ([1]; Isopropanol)	XRPD results (Dried) ([1]; Isopropanol)	Dry method and appearance ([1]; MTBE)	XRPD results (Dried) ([1]; MTBE)	% remaining at time point in minutes, 0 min [2] [%]	% remaining at time point in minutes, 15 min [2] [%]	% remaining at time point in minutes, 120 min ([2]; 120 min) [%]	% remaining at time point in minutes, 480 min ([2]; 480 min) [%]	% remaining at time point in minutes, 1440 min [2] [%]	Visual observation RT ([1]; Acetone, target conc. 100 mg/ml, RT)
CCCCCCCCCCCCOC(=O)Oc1ccc2c3c1O[C@H]1C(=O)CC[C@@]4(O)C(C2)N(CC2CC2)CC[C@]314 [Compound 11, (4aS,7aR,12bS)-3-(cyclopropylmethyl)-4a-hydroxy-7-oxo-2,3,4,4a,5,6,7,7a-octahydro-1H-4,12-methanobenzofuro[3,2-e]isoquinolin-9-yl dodecyl carbonate]	Evaporation/white powder	Pattern A	Evaporation/white powder	Pattern A	Evaporation/white powder	Pattern B	Evaporation/white powder	Pattern A	Evaporation/white powder	Pattern A	100	0.7	0.3	0.2	0	
C=C1CC[C@@]2(O)C3Cc4ccc(OC(=O)CCCCCCCCCCCCCCCCCCCCC)c5c4[C@@]2(CCN3CC2CC2)[C@H]1O5 [Compound 14, (4aS,7aS,12bS)-3-(cyclopropylmethyl)-4a-hydroxy-7-methylene-2,3,4,4a,5,6,7,7a-octahydro-1H-4,12-methanobenzofuro[3,2-e]isoquinolin-9-yl docosanoate]	Evaporation/white powder	Pattern A	Evaporation/white powder	Pattern A	Centrifugation/white powder	Pattern B	Evaporation/white powder	Pattern A	Evaporation/white powder	Pattern A	100	94			120	Slurry
C=C1CC[C@@]2(O)C3Cc4ccc(OC(=O)OCCCCCCCCCCCCCCCC)c5c4[C@@]2(CCN3CC2CC2)[C@H]1O5 [Compound 19, (4aS,7aS,12bS)-3-(cyclopropylmethyl)-4a-hydroxy-7-methylene-2,3,4,4a,5,6,7,7a-octahydro-1H-4,12-methanobenzofuro[3,2-e]isoquinolin-9-yl hexadecyl carbonate]	Evaporation/white powder	Pattern A	Evaporation/white powder	Pattern A	Evaporation/white powder	Pattern A	Evaporation/white powder	Pattern A	Evaporation/white powder	Pattern A	100					
C=C1CC[C@@]2(O)C3Cc4ccc(OC(=O)OCCCCCCCCCCCCCC)c5c4[C@@]2(CCN3CC2CC2)[C@H]1O5 [Compound 31, (4aS,7aS,12bS)-3-(cyclopropylmethyl)-4a-hydroxy-7-methylene-2,3,4,4a,5,6,7,7a-octahydro-1H-4,12-methanobenzofuro[3,2-e]isoquinolin-9-yl tetradecyl carbonate]	Evaporation/white powder	Pattern A	Evaporation/white powder	Pattern A	Evaporation/white powder	Pattern A	Evaporation/white powder	Pattern A	Evaporation/white powder	Pattern A	100					
